From US20220339187A1, “ANTIMICROBIAL PEPTIDE-SELENIUM NANOPARTICLES” (The University of Melbourne, priority 2019, published 2022)

How the values were obtained:
[1] = system: Klebsiella pneumoniae (K. pneumoniae) ATCC 13883; assay: Bacterial growth inhibition test / MIC calculation; format: cell-based; conditions: MHB, 37° C., growth curves, linear regression, mean ± s.d.
Excerpt: (§1) The bacterial strains methicillin-sensitive Staphylococcus aureus (S. aureus) ATCC 29213, methicillin-resistant Staphylococcus aureus (MRSA) ATCC 43300, Enterococcus faecalis (E. faecalis) ATCC 29212, Escherichia coli (E. coli) ATCC 25922, Acinetobacter baumannii (A. baumannii) 2208 ATCC19606, Pseudomonas aeruginosa (P. aeruginosa) strain PAO1-LAC ATCC 47085, Klebsiella pneumoniae (K. pneumoniae) ATCC 13883 and multidrug-resistant K. pneumoniae (MDR), were obtained from the culture collection of the Oral Health Cooperative Research Centre, The Melbourne Dental School, University of Melbourne, Australia. Bacteria were cultured in Mueller Hinton Broth (MHB) at 37° C. 50 μL of suspensions with the desired concentrations of Se NPs, Se NP-ε-PL or pure ε-PL in PBS solution was added to each well of 96-well microplates, then 50 μL MHB with 2.5×10^6 bacteria/mL were added into each well. The plate was put into an iEMS microplate reader (Pathtech Pty Ltd, Melbourne, Australia) at a temperature of 37° C. to monitor bacterial growth by measuring the absorbance at wavelength of 630 nm for 24 h. Background absorbance values due to the Se NP solutions were subtracted from the measured absorbance values.
(§2) The absorbance values from bacteria growth curves at the time when the stationary phase starts (tsps) were taken and calculated as a percentage of the untreated control (Z=OD5/OD6×100%, where OD5 represents absorbance at tsps of experimental groups and OD6 represents the absorbance at tsps of the negative control group; all absorbance values had the culture medium background values subtracted). Concentration-inhibition curves were plotted with the percentages of absorbance, and linear regression analysis was adopted to determine the MIC at which Z becomes zero.

[2] = system: methicillin-resistant Staphylococcus aureus (MRSA) ATCC 43300; assay: Bacterial growth inhibition test / MIC calculation; format: cell-based; conditions: MHB, 37° C., growth curves, linear regression, mean ± s.d.
Excerpt: as §1, §2

[3] = system: multidrug-resistant K. pneumoniae (MDR); assay: CFU measuring assay / MBC calculation; format: cell-based, Klebsiella pneumoniae; conditions: 90 min at 37° C., linear regression, mean ± s.d.
Description: (§3) For the CFU measuring assay, 50 μL of different concentrations of Se NPs, Se NP-ε-PL or pure ε-PL in PBS solution was added into each well of 96-well microplates, then 50 μL MHB with 2.5×10^6 cells/mL bacteria were added into each well. After incubating the microplate at 37° C. for 90 min, the bacterial solutions were diluted 10^−1, 10^−2, 10^−3 and 10^−4 times, then 10 μL of each dilution was transferred onto agar plates with MHB. The agar plates were incubated overnight, before the bacterial colony forming units were observed and measured.
Concentration-killing curves were plotted with CFUs/mL as a function of antibacterial agent concentration, and linear regression analysis was used to determine the lowest concentration (MBC) at which the CFU/mL becomes zero.

[4] = system: human dermal fibroblast cells (HDF); assay: Lactate Dehydrogenase (LDH) release assay; format: cell-based; conditions: concentration of up to 50 μg/mL, 6 h
Description: LDH is released from cells into the medium when cell lysis occurs. The amount of LDH released to the medium was measured using the Cyto Tox 96® nonradioactive assay (Promega, Madison, Wis., USA) following the manufacturer's instructions. The HDF cells were cultured in a 96-well microplate for 24 h, before the old medium was replaced with DMEM with including either Se NPs, Se NP-ε-PL or pure ε-PL. Pure DMEM was used as negative control. The microplate was put back into the incubator for 6 h. For the maximum LDH release control, HDF cells were lysed using 1× lysis solution for 45 minutes before adding Cyto Tox 96 reagent. Cyto Tox 96 reagent was then added to the wells and the microplate was incubated for a further 30 minutes. The reaction was then stopped by adding stop solution. A microplate reader (M200 PRO, Tecan) was utilized to test absorbance at 490 nm. The cytotoxicity (Y) was calculated using the following formula: […]
OD3 represents the mean absorbance of experimental groups, and OD4 represents the mean absorbance of the maximum LDH release control group. All absorbance values are after subtraction of the culture medium background values.

E. coli ATCC 25922 = assay: Adenosine triphosphate (ATP) test (BacTiter-Glo); format: cell-based, Escherichia coli; conditions: 1 h at 37° C.
Description: (§4) The bacterial strains methicillin-sensitive S. aureus ATCC 29213, E. faecalis ATCC 29212, E. coli ATCC 25922 and K. pneumoniae ATCC 13883 were cultured in MHB at 37° C. 50 μL of Se NPs, Se NP-ε-PL or pure ε-PL in PBS solution was added into each well of 96-well microplates. 50 μL MHB with 2.5×10^6 cells/mL bacteria was then added into each well. After 1h incubation at 37° C., the 96-well microplates were transferred to room temperature for a further 30 min incubation period. 100 μL of BacTiter-Glo™ reagent (Promega, Australia) was added into each well, then mixed on an orbital shaker and incubated for 5 min. The luminescence was recorded using a microplate reader (PerkinElmer 1420 Multilabel Counter VICTOR3).
(§5) A standard curve was generated by adopting the following steps. 10-fold serial dilutions of ATP from 1 μM to 10 pM in 100 μL MHB were prepared. 100 μL of BacTiter-Glo™ reagent was added into each well, then mixed on an orbital shaker and incubated for 1 min. The luminescence was recorded using a microplate reader (PerkinElmer 1420 Multilabel Counter VICTOR3).

K. pneumoniae ATCC 13883 = assay: Adenosine triphosphate (ATP) test (BacTiter-Glo); format: cell-based, Klebsiella pneumoniae; conditions: 1 h at 37° C.
Description: as §4, §5

[5] = system: Gram-negative cells (E. coli, A. baumannii and K. pneumoniae); assay: Helium ion microscopy (HIM) of treated bacteria; format: cell-based; conditions: 90 min incubation
Description: The morphologies of bacterial strains methicillin-sensitive S. aureus (MSSA) ATCC 29213, E. faecalis ATCC 29212, E. coli ATCC 25922, A. baumannii 2208 ATCC19606 and K. pneumoniae ATCC 13883 after treatment with Se NPs, Se NP-ε-PL or pure ε-PL were observed using Helium Ion Microscopy (HIM, Zeiss, Germany). The samples were prepared in the following steps. First, 100 μL of 125 μg/mL Se NPs, Se NP-ε-PL or pure ε-PL in PBS solution was added to each well of 96-well microplates, 100 μL pure PBS was used as untreated control. Afterwards, 100 μL MHB with 1.25×10^7/mL bacteria was added to each well. After 90 min incubation, 10 μL of both treated and untreated bacteria was dropped on clean silicon wafers, and they were then dried at 37° C. for 20 min. The dried samples were transferred to a 12-well plate, 2.5% glutaraldehyde was added to each well to fix the bacteria cells for 1 h, then gradient ethanol solution (30%, 50%, 60%, 70%, 80%, 90%, 95% and 100%) was used for dehydration. The prepared samples were dried in the fume hood overnight before use.

Gram-negative bacteria = assay: Colony forming unit assay (bactericidal effect); format: cell-based
Description: as §3

ε-poly-L-lysine [ε-PL]
MIC [1]: 12.0 ± 0.6 µg/mL | MIC [2]: 11.6 ± 2.0 µg/mL | MBC [3]: 24.7 ± 0.5 µg/mL | LDH released from HDF cells compared with untreated control [4]: no significant difference to the untreated control | ATP depletion (E. coli ATCC 25922): higher ATP depletion effect than Se NPs | ATP depletion (K. pneumoniae ATCC 13883): higher ATP depletion effect than Se NPs | cell morphology after treatment (HIM) [5]: membranes of E. coli, A. baumannii and K. pneumoniae cells were disrupted | bactericidal effect (CFU) (Gram-negative bacteria): high bactericidal efficacy
